In PubChem BioAssay AID1963984 (Molecular Pharmacology Branch, DTP, NCI, 2024):
pIC50: −log10 of the molar value.

System: 233499-124-R-J3-PDC spheroids with HUVEC/MSC, viability
Experiment: Anticancer human tumor 233499-124-R-J3-PDC patient-derived colon adenocarcinoma cell line growth inhibition [PI3K]
Conditions: for pIC50: curve of first compound; for viability, T/C: stronger effect = lower value; active = viability on the fitted dose curve at most 10% of control; inactive = the rest
Procedure, shortened: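 We assembled tumor spheroids that included a stromal compartment of HUVEC and MSCs, then exposed them to targeted agents alone and together with PI3K pathway inhibitors. Concentration series descended by half-log from clinically achievable Cmax levels. Viability served as the endpoint.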

[1] = second compound 0.0316 µM, first compound 0.0316 µM
[2] = second compound 0.0316 µM, first compound 0.1 µM
[3] = second compound 0.0316 µM, first compound 0.316 µM
[4] = second compound 0.0316 µM, first compound 1 µM
[5] = second compound 0.0316 µM, first compound 3.16 µM
[6] = second compound 0.0316 µM, first compound 10 µM
[7] = second compound 0.1 µM, first compound 0.0316 µM
[8] = second compound 0.1 µM, first compound 0.1 µM
[9] = second compound 0.1 µM, first compound 0.316 µM
[10] = second compound 0.1 µM, first compound 1 µM
[11] = second compound 0.1 µM, first compound 3.16 µM
[12] = second compound 0.1 µM, first compound 10 µM
[13] = second compound 0.316 µM, first compound 0.0316 µM
[14] = second compound 0.316 µM, first compound 0.1 µM
[15] = second compound 0.316 µM, first compound 0.316 µM
[16] = second compound 0.316 µM, first compound 1 µM
[17] = second compound 0.316 µM, first compound 3.16 µM
[18] = second compound 0.316 µM, first compound 10 µM
[19] = second compound 1 µM, first compound 0.0316 µM
[20] = second compound 1 µM, first compound 0.1 µM
[21] = second compound 1 µM, first compound 0.316 µM
[22] = second compound 1 µM, first compound 1 µM
[23] = second compound 1 µM, first compound 3.16 µM
[24] = second compound 1 µM, first compound 10 µM
[25] = second compound 3.16 µM, first compound 0.0316 µM
[26] = second compound 3.16 µM, first compound 0.1 µM
[27] = second compound 3.16 µM, first compound 0.316 µM
[28] = second compound 3.16 µM, first compound 1 µM
[29] = second compound 3.16 µM, first compound 3.16 µM
[30] = second compound 3.16 µM, first compound 10 µM
[31] = second compound 10 µM, first compound 0.0316 µM
[32] = second compound 10 µM, first compound 0.1 µM
[33] = second compound 10 µM, first compound 0.316 µM
[34] = second compound 10 µM, first compound 1 µM
[35] = second compound 10 µM, first compound 3.16 µM
[36] = second compound 10 µM, first compound 10 µM
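Also: spheroids exposed to agents for seven days before readout.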
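For viability, T/C in this document: percent viability relative to DMSO vehicle control taken as 100%.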

CC1(C)CCC(Nc2ncc(C(F)(F)F)c(-c3c[nH]c4c(P(C)(C)=O)c(C#N)ccc34)n2)CN1 (stereo unspecified) + CC(Nc1ncnc2nc[nH]c12)c1cc2cccc(Cl)c2c(=O)n1-c1ccccc1
6.68: pIC50 (second compound 0.1 µM)
7.04: pIC50 (second compound 0.316 µM)
> 7.50: pIC50 (second compound 10 µM)
6.56: pIC50 (second compound 3.16 µM)
active: viability, T/C [30] 4.38% | viability, T/C [36] 6.16%
inactive: viability, T/C [1] 88.8% | viability, T/C [2] 52.3% | viability, T/C [3] 40% | viability, T/C [4] 50.8% | viability, T/C [5] 25.2% | viability, T/C [6] 20.1% | viability, T/C [7] 93% | viability, T/C [8] 50.4% | viability, T/C [9] 49% | viability, T/C [10] 30.9% | viability, T/C [11] 29.8% | viability, T/C [12] 6.77% | viability, T/C [13] 66.7% | viability, T/C [14] 46% | viability, T/C [15] 30.7% | viability, T/C [16] 32.2% | viability, T/C [17] 34% | viability, T/C [18] 10.2% | viability, T/C [19] 81.8% | viability, T/C [20] 50.5% | viability, T/C [21] 51% | viability, T/C [22] 28.2% | viability, T/C [23] 22.7% | viability, T/C [24] 22.6% | viability, T/C [25] 75.9% | viability, T/C [26] 67.2% | viability, T/C [27] 46.8% | viability, T/C [28] 27.5% | viability, T/C [29] 23.2% | viability, T/C [31] 52.3% | viability, T/C [32] 36.4% | viability, T/C [33] 49.6% | viability, T/C [34] 20.7% | viability, T/C [35] 38.8%
6.69: pIC50 (second compound 0.0316 µM)
6.77: pIC50 (second compound 1 µM)

Cn1ncc(Cl)c1-c1cc(C(=O)NC(CN)Cc2cccc(F)c2)sc1Cl (stereo unspecified) + CC(Nc1ncnc2nc[nH]c12)c1cc2cccc(Cl)c2c(=O)n1-c1ccccc1
5.49: pIC50 (second compound 0.0316 µM)
5.33: pIC50 (second compound 0.1 µM)
inactive: viability, T/C [1] 70.5% | viability, T/C [2] 105% | viability, T/C [3] 60.3% | viability, T/C [4] 91.5% | viability, T/C [5] 50.2% | viability, T/C [6] 26.3% | viability, T/C [7] 86.4% | viability, T/C [8] 108% | viability, T/C [9] 94.2% | viability, T/C [10] 58.2% | viability, T/C [11] 75.7% | viability, T/C [12] 24.7% | viability, T/C [13] 115% | viability, T/C [14] 107% | viability, T/C [15] 70.6% | viability, T/C [16] 62.7% | viability, T/C [17] 63.6% | viability, T/C [18] 28.7% | viability, T/C [19] 94.8% | viability, T/C [20] 90.9% | viability, T/C [21] 86.1% | viability, T/C [22] 73.5% | viability, T/C [23] 59.6% | viability, T/C [24] 24.6% | viability, T/C [25] 97% | viability, T/C [26] 98.6% | viability, T/C [27] 79.1% | viability, T/C [28] 106% | viability, T/C [29] 64.5% | viability, T/C [30] 31.5% | viability, T/C [31] 94.8% | viability, T/C [32] 92% | viability, T/C [33] 108% | viability, T/C [34] 65.2% | viability, T/C [35] 69.6% | viability, T/C [36] 32.4%
5.28: pIC50 (second compound 3.16 µM) | pIC50 (second compound 10 µM)
5.39: pIC50 (second compound 1 µM)
5.50: pIC50 (second compound 0.316 µM)

Cn1nccc1Nc1nccc(-c2ccn(C(CO)c3ccc(Cl)c(F)c3)c(=O)c2)n1 (stereo unspecified) + CC(Nc1ncnc2nc[nH]c12)c1cc2cccc(Cl)c2c(=O)n1-c1ccccc1
< 5.00: pIC50 (second compound 0.0316 µM) | pIC50 (second compound 0.1 µM) | pIC50 (second compound 0.316 µM) | pIC50 (second compound 1 µM) | pIC50 (second compound 3.16 µM) | pIC50 (second compound 10 µM)
inactive: viability, T/C [1] 108% | viability, T/C [2] 104% | viability, T/C [3] 110% | viability, T/C [4] 88% | viability, T/C [5] 89% | viability, T/C [6] 70.8% | viability, T/C [7] 103% | viability, T/C [8] 95.6% | viability, T/C [9] 91.3% | viability, T/C [10] 65.1% | viability, T/C [11] 92.8% | viability, T/C [12] 62.3% | viability, T/C [13] 108% | viability, T/C [14] 89.9% | viability, T/C [15] 90.4% | viability, T/C [16] 70.8% | viability, T/C [17] 78.1% | viability, T/C [18] 68.6% | viability, T/C [19] 91.7% | viability, T/C [20] 72.6% | viability, T/C [21] 72.9% | viability, T/C [22] 86.3% | viability, T/C [23] 81.3% | viability, T/C [24] 69% | viability, T/C [25] 87% | viability, T/C [26] 87.9% | viability, T/C [27] 74.5% | viability, T/C [28] 89.8% | viability, T/C [29] 66.3% | viability, T/C [30] 77.6% | viability, T/C [31] 76.8% | viability, T/C [32] 83.8% | viability, T/C [33] 98% | viability, T/C [34] 69.9% | viability, T/C [35] 76.4% | viability, T/C [36] 51.9%
